From ChEMBL document CHEMBL1201862, “PubChem BioAssay data set” (2004)
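Cells were grown in 96-well plates and exposed to each compound for 48 hours at five concentrations; endpoints were interpolated linearly between bracketing concentrations, or set to the highest concentration if not reached. Abbreviation: GI50, concentration required for 50% inhibition of growth.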 Activity calls are given as the source filed them. No stated cut-off is given here; in the data, active = GI50 up to about 1.1 µM and inactive = higher.

Experiments:
Assay in all cases: NCI anticancer screen, dose series, 48 h
CCRF-CEM = test system: CCRF-CEM
NCI-H460 = test system: NCI-H460
A549 = test system: A549
CAKI-1 = test system: CAKI-1
M14 = test system: M14
HOP-92 = test system: HOP-92
NCI-H226 = test system: NCI-H226
KM12 = test system: KM12
HT-29 = test system: HT-29
EKVX = test system: EKVX
UACC-257 = test system: UACC-257
Malme-3M = test system: Malme-3M
OVCAR-8 = test system: OVCAR-8
TK-10 = test system: TK-10
OVCAR-3 = test system: OVCAR-3
HCT-116 = test system: HCT-116
SNB-75 = test system: SNB-75
UO-31 = test system: UO-31
NCI/ADR-RES = test system: NCI/ADR-RES
MDA-MB-435 = test system: MDA-MB-435

| SMILES | GI50 (CCRF-CEM) | GI50 (NCI-H460) | GI50 (A549) | GI50 (CAKI-1) | GI50 (M14) | GI50 (HOP-92) | GI50 (NCI-H226) | GI50 (KM12) | GI50 (HT-29) | GI50 (EKVX) | GI50 (UACC-257) | GI50 (Malme-3M) | GI50 (OVCAR-8) | GI50 (TK-10) | GI50 (OVCAR-3) | GI50 (HCT-116) | GI50 (SNB-75) | GI50 (UO-31) | GI50 (NCI/ADR-RES) | GI50 (MDA-MB-435) |
| --- | --- | --- | --- | --- | --- | --- | --- | --- | --- | --- | --- | --- | --- | --- | --- | --- | --- | --- | --- | --- |
| Nc1nc(-c2ccccc2)cc(-c2ccccc2O)n1 | 34 µM (inactive) | 36.2 µM (inactive) | 34.6 µM (inactive) | 34.1 µM (inactive) | 81.1 µM (inactive) | > 100 µM (inactive) | 19 µM (inactive) | 23.9 µM (inactive) | 33.4 µM (inactive) | 23.7 µM (inactive) | 73.8 µM (inactive) | > 100 µM (inactive) | 39.7 µM (inactive) | 46.7 µM (inactive) | 33.5 µM (inactive) | 20.7 µM (inactive) | 36.6 µM (inactive) | 8.15 µM (inactive) | – | – |
| C=CC(C)(C)c1c(OC)oc2ccc(OC)c(C)c2c1=O | > 100 µM (inactive) | > 100 µM (inactive) | > 100 µM (inactive) | > 100 µM (inactive) | > 100 µM (inactive) | – | > 100 µM (inactive) | > 100 µM (inactive) | 96.4 µM (inactive) | > 100 µM (inactive) | > 100 µM (inactive) | > 100 µM (inactive) | > 100 µM (inactive) | > 100 µM (inactive) | > 100 µM (inactive) | 89.7 µM (inactive) | 89.5 µM (inactive) | > 100 µM (inactive) | 96.8 µM (inactive) | > 100 µM (inactive) |
| Cn1nnc2c3c(N(CCO)CCO)ccnc3ccc21 | > 100 µM (inactive) | 39.9 µM (inactive) | > 100 µM (inactive) | > 100 µM (inactive) | > 100 µM (inactive) | – | – | 97.5 µM (inactive) | 89.3 µM (inactive) | > 100 µM (inactive) | > 100 µM (inactive) | > 100 µM (inactive) | > 100 µM (inactive) | > 100 µM (inactive) | > 100 µM (inactive) | 54.2 µM (inactive) | > 100 µM (inactive) | > 100 µM (inactive) | > 100 µM (inactive) | > 100 µM (inactive) |
| N#CC1(Cc2ccccc2[N+](=O)[O-])c2ccccc2C2C(N1C(=O)c1ccccc1)C2(Cl)Cl (stereo unspecified) | > 100 µM (inactive) | > 100 µM (inactive) | > 100 µM (inactive) | > 100 µM (inactive) | > 100 µM (inactive) | > 100 µM (inactive) | > 100 µM (inactive) | > 100 µM (inactive) | > 100 µM (inactive) | > 100 µM (inactive) | > 100 µM (inactive) | > 100 µM (inactive) | > 100 µM (inactive) | > 100 µM (inactive) | > 100 µM (inactive) | > 100 µM (inactive) | 52.6 µM (inactive) | > 100 µM (inactive) | – | – |
| COc1cccc(NC(=O)CC(=O)N2NC(C)C(/N=N/c3cccc(C(=O)O)c3)C2=O)c1 (stereo unspecified) | > 100 µM (inactive) | > 100 µM (inactive) | > 100 µM (inactive) | > 100 µM (inactive) | > 100 µM (inactive) | > 100 µM (inactive) | > 100 µM (inactive) | > 100 µM (inactive) | > 100 µM (inactive) | > 100 µM (inactive) | > 100 µM (inactive) | > 100 µM (inactive) | > 100 µM (inactive) | > 100 µM (inactive) | > 100 µM (inactive) | > 100 µM (inactive) | > 100 µM (inactive) | > 100 µM (inactive) | – | – |
| Cc1nc2sccn2c1C(=O)NC(=O)Nc1ccc(Cl)cc1 | > 100 µM (inactive) | > 100 µM (inactive) | 57.4 µM (inactive) | > 100 µM (inactive) | > 100 µM (inactive) | 31.2 µM (inactive) | 71.9 µM (inactive) | > 100 µM (inactive) | > 100 µM (inactive) | > 100 µM (inactive) | > 100 µM (inactive) | > 100 µM (inactive) | > 100 µM (inactive) | 30.9 µM (inactive) | 60.3 µM (inactive) | 46.2 µM (inactive) | 24.3 µM (inactive) | 59.2 µM (inactive) | – | – |
| O=C1/C(=C/c2ccc(OC(=O)c3ccc(Cl)cc3)cc2)CCC/C1=C\c1ccc(OC(=O)c2ccc(Cl)cc2)cc1 | > 100 µM (inactive) | > 100 µM (inactive) | > 100 µM (inactive) | > 100 µM (inactive) | > 100 µM (inactive) | > 100 µM (inactive) | – | > 100 µM (inactive) | > 100 µM (inactive) | > 100 µM (inactive) | > 100 µM (inactive) | – | > 100 µM (inactive) | 94.8 µM (inactive) | > 100 µM (inactive) | > 100 µM (inactive) | 21 µM (inactive) | > 100 µM (inactive) | > 100 µM (inactive) | > 100 µM (inactive) |
| CCOC(=O)C(Cc1ccc(OC(=O)OC(C)(C)C)cc1)NC(=O)OC(C)(C)C (stereo unspecified) | 21.9 µM (inactive) | > 100 µM (inactive) | > 100 µM (inactive) | > 100 µM (inactive) | 26.5 µM (inactive) | – | > 100 µM (inactive) | 70.6 µM (inactive) | > 100 µM (inactive) | > 100 µM (inactive) | 21.3 µM (inactive) | > 100 µM (inactive) | 37.4 µM (inactive) | 71.1 µM (inactive) | 40.6 µM (inactive) | 78 µM (inactive) | 17.1 µM (inactive) | 54.3 µM (inactive) | 49.9 µM (inactive) | 38.2 µM (inactive) |
| CC1=CC2CC(C)=C(CC[C@]3(C)CC[C@H]([C@@H](C)C(=O)O)OO3)C(C)(C)C2CC1 (stereo partly specified) | 0.182 µM (active) | 0.2 µM (active) | 0.45 µM (active) | 1.17 µM (inactive) | 1.31 µM (inactive) | 0.136 µM (active) | 1.85 µM (inactive) | 0.128 µM (active) | 0.182 µM (active) | 1.91 µM (inactive) | 1.53 µM (inactive) | 0.771 µM (active) | 0.603 µM (active) | 1.76 µM (inactive) | 1.63 µM (inactive) | 0.457 µM (active) | 0.853 µM (active) | 0.984 µM (active) | – | – |
| C/C(=C/C(=O)Nn1c(Cc2ccccc2)n[nH]c1=O)C(=O)O | > 100 µM (inactive) | > 100 µM (inactive) | > 100 µM (inactive) | > 100 µM (inactive) | > 100 µM (inactive) | – | > 100 µM (inactive) | > 100 µM (inactive) | > 100 µM (inactive) | > 100 µM (inactive) | > 100 µM (inactive) | > 100 µM (inactive) | > 100 µM (inactive) | > 100 µM (inactive) | > 100 µM (inactive) | > 100 µM (inactive) | > 100 µM (inactive) | > 100 µM (inactive) | > 100 µM (inactive) | > 100 µM (inactive) |
| COc1ccc(/C=C2/C(=O)N(/C=C3\C(=O)Oc4ccccc4C3=O)/C(=N/C(C)=O)N2C)cc1OC | > 100 µM (inactive) | > 100 µM (inactive) | > 100 µM (inactive) | > 100 µM (inactive) | > 100 µM (inactive) | – | > 100 µM (inactive) | > 100 µM (inactive) | > 100 µM (inactive) | > 100 µM (inactive) | > 100 µM (inactive) | > 100 µM (inactive) | > 100 µM (inactive) | – | 0.143 µM (active) | > 100 µM (inactive) | 45.9 µM (inactive) | – | > 100 µM (inactive) | > 100 µM (inactive) |
| COc1cccc2nc3c(C(=O)NCCN(C)C)cccc3nc12 | 5.35 µM (inactive) | 3.78 µM (inactive) | 7.35 µM (inactive) | 17.1 µM (inactive) | 13.4 µM (inactive) | 6.17 µM (inactive) | 5.27 µM (inactive) | 7.19 µM (inactive) | 4.63 µM (inactive) | 12.6 µM (inactive) | 6.03 µM (inactive) | 7.96 µM (inactive) | 9.12 µM (inactive) | 11 µM (inactive) | 18.1 µM (inactive) | 3.79 µM (inactive) | 12.4 µM (inactive) | 12.2 µM (inactive) | – | – |
| O=c1n(CCO)nc2n1CCCN2 | > 100 µM (inactive) | > 100 µM (inactive) | > 100 µM (inactive) | – | > 100 µM (inactive) | > 100 µM (inactive) | > 100 µM (inactive) | > 100 µM (inactive) | > 100 µM (inactive) | > 100 µM (inactive) | – | > 100 µM (inactive) | > 100 µM (inactive) | > 100 µM (inactive) | > 100 µM (inactive) | > 100 µM (inactive) | > 100 µM (inactive) | > 100 µM (inactive) | – | > 100 µM (inactive) |
| CC1=C(C(=O)Nc2ccccc2C)C(c2ccccc2)C(C(=O)Nc2ccccc2C)=C(C)N1 | 20.9 µM (inactive) | 33.6 µM (inactive) | 59 µM (inactive) | 24.9 µM (inactive) | 39.4 µM (inactive) | 6.61 µM (inactive) | > 100 µM (inactive) | 26.6 µM (inactive) | 34.7 µM (inactive) | 27.7 µM (inactive) | 37.8 µM (inactive) | 35.1 µM (inactive) | 52 µM (inactive) | 98.6 µM (inactive) | 31.8 µM (inactive) | 24.3 µM (inactive) | 35.6 µM (inactive) | 35.2 µM (inactive) | – | – |
| COC(=O)[C@]12CCC(C)[C@H](C)[C@H]1C1=CCC3[C@@]4(C)CC[C@H](OC(C)=O)C(C)(C)C4CC[C@@]3(C)C1(C)C(O)C2 (stereo partly specified) | 89.3 µM (inactive) | > 100 µM (inactive) | > 100 µM (inactive) | > 100 µM (inactive) | > 100 µM (inactive) | > 100 µM (inactive) | 27.1 µM (inactive) | > 100 µM (inactive) | > 100 µM (inactive) | > 100 µM (inactive) | > 100 µM (inactive) | > 100 µM (inactive) | > 100 µM (inactive) | > 100 µM (inactive) | > 100 µM (inactive) | 54.2 µM (inactive) | 45.2 µM (inactive) | > 100 µM (inactive) | – | – |
